Consider five compounds from article PMC4104496 (Clinical cancer research : an official journal of the …, 2012).

For data set [1] the following is noted: for Cmax/dose / Tmax: iv.
Another data set in a line: clinical. The conditions noted are these: human, in vivo, iv.

Each structure is given as a SMILES string. Where two headings read alike, the source gives them in different places.

For the compound `CCc1c2c(nc3ccc(OC(=O)N4CCC(N5CCCCC5)CC4)cc13)-c1cc3c(c(=O)n1C2)COC(=O)[C@]3(O)CC` [irinotecan, reference compound], the trough concentrations result in data set [1] (in vivo) is “detectable”. Also, the Tmax in “clinical” was 0.167 days.
Turning to `CCc1c2c(nc3ccc(O[C@@H]4O[C@H](C(=O)O)[C@@H](O)[C@H](O)[C@H]4O)cc13)-c1cc3c(c(=O)n1C2)COC(=O)[C@]3(O)CC` [SN-38-G, SN-38-glucuronide], in data set [1] (Mean (%CV), plasma, 76 patients, after etirinotecan pegol 58 to 245 mg/m^2), the “T1/2 (terminal elimination half-life)” value is reported as 61 (37) d. Moreover, the trough concentrations result in data set [1] (after etirinotecan pegol dosing with all 3 schedules) is given as “detectable”. Besides, the terminal disposition half-life in data set [1] (plasma, patients, after etirinotecan pegol administration) was determined as 61 days.
Consider `CCc1c2c(nc3ccc(OC(=O)N4CCC(NCCCCC(=O)O)CC4)cc13)-c1cc3c(c(=O)n1C2)COC(=O)C3(O)CC` (stereo not drawn) [APC, 7-ethyl-10-(4-N-(5-aminopentanoic acid)-1-piperidine)carbonyloxycamptothecin], for which, in data set [1] (human, in vivo), the AUC/dose is 13 (73) h*ng/mL/mg/m^2, the “CL or CL/F” value is 96 (49) L/h/m^2, the “T1/2 (terminal elimination half-life)” value is reported as 58 (8) d and the terminal disposition half-life stood at 53 days. Moreover, in data set [1] (human, in vivo), the Cmax/dose is given as 0.08 (118) ng/mL/mg/m^2 and the Tmax is listed as 20 (41) h. Further, in data set [1] (in vivo), the “V or V/F” value was 170 L/m^2 and the trough concentrations result is reported as “detectable”.
As for `CCc1c2c(nc3ccc(OC(=O)N4CCC(N)CC4)cc13)-c1cc3c(c(=O)n1C2)COC(=O)[C@]3(O)CC` [NPC, 7-ethyl-10-(4-amino-1-piperidino) carbonyloxycamptothecin], the plasma concentrations result in data set [1] (in vivo) is “near the limit of quantitation”.
Turning to `CCc1c2c(nc3ccc(O)cc13)-c1cc3c(c(=O)n1C2)COC(=O)[C@]3(O)CC` [SN-38], in data set [1] (human, in vivo), the AUC/dose is on record as 8 (52) h*ng/mL/mg/m^2, the “CL or CL/F” value was 170 (59) L/h/m^2, the “T1/2 (terminal elimination half-life)” value was 50 (28) d and the Cmax/dose was 0.02 (55) ng/mL/mg/m^2. Moreover, the Tmax in data set [1] (human, in vivo) was 13 (170) h. In data set [1] (in vivo), the “V or V/F” value is listed as 27 L/m^2 and the trough concentrations entry is recorded as “detectable”.
